In publication PMC9106868 (European journal of medicinal chemistry, 2022):

Columns and labels:
GluN1/2A NMDARs = GluN1/2A NMDARs (Rattus norvegicus, UniProt P35439+Q00959); type: cell-based; settings: after removal of 10 μM blocker
5XFAD mice hippocampus = assay: Western blot of hippocampal proteins after treatment; type: in vivo, mouse; settings: 5 mg / kg
NMDAR = settings: cited from earlier work; for V0: previously reported values, ref [28],[63],[68],[80]–[81]; for IC50: therapeutically beneficial NMDAR antagonists, ref [28],[61]–[68]
Caco-2 cells = assay: Caco-2 cell permeability; type: in vitro ADME; settings: 10 μM in HBSS, 1 hour, 37 °C

Sequence of GluN1/2A NMDARs (Q00959 23-1464, other chains not shown): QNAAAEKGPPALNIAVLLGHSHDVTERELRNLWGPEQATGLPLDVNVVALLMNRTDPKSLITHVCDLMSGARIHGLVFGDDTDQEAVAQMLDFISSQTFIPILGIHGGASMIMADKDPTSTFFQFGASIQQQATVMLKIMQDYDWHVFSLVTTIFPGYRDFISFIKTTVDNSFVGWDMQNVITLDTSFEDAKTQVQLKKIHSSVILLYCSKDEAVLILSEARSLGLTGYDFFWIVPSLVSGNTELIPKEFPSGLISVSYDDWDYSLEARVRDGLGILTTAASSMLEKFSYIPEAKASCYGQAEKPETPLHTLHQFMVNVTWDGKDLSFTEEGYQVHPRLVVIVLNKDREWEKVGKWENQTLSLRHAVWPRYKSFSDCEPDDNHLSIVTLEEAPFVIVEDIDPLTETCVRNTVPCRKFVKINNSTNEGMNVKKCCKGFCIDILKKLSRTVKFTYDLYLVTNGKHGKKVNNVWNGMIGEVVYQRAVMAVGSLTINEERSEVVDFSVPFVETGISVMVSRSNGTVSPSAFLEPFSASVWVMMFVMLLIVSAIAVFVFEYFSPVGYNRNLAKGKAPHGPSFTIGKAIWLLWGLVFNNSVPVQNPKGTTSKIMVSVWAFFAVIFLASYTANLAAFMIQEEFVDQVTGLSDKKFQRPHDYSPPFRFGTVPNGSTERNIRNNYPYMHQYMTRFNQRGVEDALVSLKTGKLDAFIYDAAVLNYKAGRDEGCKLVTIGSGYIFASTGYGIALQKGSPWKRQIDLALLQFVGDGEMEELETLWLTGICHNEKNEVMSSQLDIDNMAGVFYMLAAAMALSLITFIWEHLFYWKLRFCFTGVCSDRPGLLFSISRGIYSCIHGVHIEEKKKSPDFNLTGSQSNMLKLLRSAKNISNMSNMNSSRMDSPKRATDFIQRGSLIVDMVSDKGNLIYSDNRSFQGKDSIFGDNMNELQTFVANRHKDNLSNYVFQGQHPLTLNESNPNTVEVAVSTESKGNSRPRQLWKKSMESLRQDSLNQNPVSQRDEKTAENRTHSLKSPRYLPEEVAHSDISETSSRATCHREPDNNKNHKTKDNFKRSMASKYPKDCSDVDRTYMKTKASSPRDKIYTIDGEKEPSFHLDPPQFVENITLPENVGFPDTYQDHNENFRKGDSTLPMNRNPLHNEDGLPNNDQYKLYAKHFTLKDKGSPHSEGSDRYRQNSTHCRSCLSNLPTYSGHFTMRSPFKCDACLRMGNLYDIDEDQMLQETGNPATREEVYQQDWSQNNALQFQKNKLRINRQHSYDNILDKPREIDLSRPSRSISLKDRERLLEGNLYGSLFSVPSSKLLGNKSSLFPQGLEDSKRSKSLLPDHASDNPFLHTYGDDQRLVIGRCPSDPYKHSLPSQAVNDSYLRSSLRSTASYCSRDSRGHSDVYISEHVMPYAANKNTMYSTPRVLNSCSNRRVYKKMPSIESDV

In the case of `CC12CC3CC(C)(C1)CC(N)(C3)C2` [Memantine, memantine], the “Unblocking kinetics, τweighted” value (GluN1/2A NMDARs) is reported as 6.4 ± 1.4 s, the “Calbindin D-28K protein levels” value (5XFAD mice hippocampus) is reported as “reverts calbindin D-28K protein levels to WT levels” and the PSD95 expression (5XFAD mice hippocampus) is reported as “rescues expression of postsynaptic density protein (PSD) 95”. The “p-CREB protein levels in the nucleus” value (5XFAD mice hippocampus; vs untreated 5XFAD) was “significantly increased p-CREB protein levels in the nucleus”, the V0 (NMDAR) was 26 – 30 mV and the IC50 (NMDAR) was 1 to 2 µM.
In the case of `NC12CC3CC(CC(C3)C1)C2` [amantadine], the IC50 (NMDAR) is listed as 40 to 75 µM.
In the case of `CNC1(c2ccccc2Cl)CCCCC1=O` (stereo not drawn) [ketamine], the V0 (NMDAR) is listed as 26 – 30 mV.
For Lucifer yellow, the “Caco-2 Papp (monolayer integrity)” value (Caco-2 cells) was at most 10 nm/s.
